Results as given in the kinase profiling compilation of Christmann-Franck et al. (2016).

How the values were obtained:
Experiment in all cases: Caliper, Mobility shift assay off-chip
[1] = molecular target: FES (human) (UniProt P07332)
[2] = molecular target: HIPK3 (human) (UniProt Q9H422)
[3] = molecular target: PGK1 (human) (UniProt P00558)
[4] = molecular target: DYRK3 (human) (UniProt O43781)
[5] = molecular target: DCLK2 (human) (UniProt Q8N568)
[6] = molecular target: NEK2 (human) (UniProt P51955)
[7] = molecular target: IGF1R (human) (UniProt P08069)
[8] = molecular target: AKT1 (human) (UniProt P31749)
[9] = molecular target: FLT4 (human) (UniProt P35916)
[10] = molecular target: EPHA5 (human) (UniProt P54756)
Sequence of EPHA5 (human) (P54756 whole entry, looked up): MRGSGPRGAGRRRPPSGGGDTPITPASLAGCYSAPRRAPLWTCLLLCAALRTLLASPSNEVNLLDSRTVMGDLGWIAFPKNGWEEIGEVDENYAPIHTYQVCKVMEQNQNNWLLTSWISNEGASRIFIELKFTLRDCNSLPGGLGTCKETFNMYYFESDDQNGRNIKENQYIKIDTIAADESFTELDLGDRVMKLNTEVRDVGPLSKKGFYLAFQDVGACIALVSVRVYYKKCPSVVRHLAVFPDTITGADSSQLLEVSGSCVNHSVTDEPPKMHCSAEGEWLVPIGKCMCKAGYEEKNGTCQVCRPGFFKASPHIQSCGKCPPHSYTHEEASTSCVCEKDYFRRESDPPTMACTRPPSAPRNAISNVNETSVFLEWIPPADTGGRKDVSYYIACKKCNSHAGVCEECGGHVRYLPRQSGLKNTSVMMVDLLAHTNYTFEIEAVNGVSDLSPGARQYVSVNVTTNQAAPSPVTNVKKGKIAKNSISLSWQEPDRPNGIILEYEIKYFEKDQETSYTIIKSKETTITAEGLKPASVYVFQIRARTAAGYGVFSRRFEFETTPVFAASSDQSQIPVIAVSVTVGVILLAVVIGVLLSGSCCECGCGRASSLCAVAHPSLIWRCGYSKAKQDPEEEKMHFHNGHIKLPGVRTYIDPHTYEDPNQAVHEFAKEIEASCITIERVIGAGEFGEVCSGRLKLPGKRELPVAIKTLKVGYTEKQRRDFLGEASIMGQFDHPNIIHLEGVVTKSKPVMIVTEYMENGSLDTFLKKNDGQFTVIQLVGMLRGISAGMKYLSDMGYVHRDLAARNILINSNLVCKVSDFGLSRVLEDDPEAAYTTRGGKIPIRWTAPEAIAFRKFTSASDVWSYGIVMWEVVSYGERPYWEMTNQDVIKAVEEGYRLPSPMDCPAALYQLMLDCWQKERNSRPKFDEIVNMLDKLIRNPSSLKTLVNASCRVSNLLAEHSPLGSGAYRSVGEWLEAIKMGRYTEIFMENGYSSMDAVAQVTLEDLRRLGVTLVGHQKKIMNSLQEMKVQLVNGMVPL

[11] = molecular target: TEC (human) (UniProt P42680)
Sequence of TEC (human) (P42680 whole entry, looked up): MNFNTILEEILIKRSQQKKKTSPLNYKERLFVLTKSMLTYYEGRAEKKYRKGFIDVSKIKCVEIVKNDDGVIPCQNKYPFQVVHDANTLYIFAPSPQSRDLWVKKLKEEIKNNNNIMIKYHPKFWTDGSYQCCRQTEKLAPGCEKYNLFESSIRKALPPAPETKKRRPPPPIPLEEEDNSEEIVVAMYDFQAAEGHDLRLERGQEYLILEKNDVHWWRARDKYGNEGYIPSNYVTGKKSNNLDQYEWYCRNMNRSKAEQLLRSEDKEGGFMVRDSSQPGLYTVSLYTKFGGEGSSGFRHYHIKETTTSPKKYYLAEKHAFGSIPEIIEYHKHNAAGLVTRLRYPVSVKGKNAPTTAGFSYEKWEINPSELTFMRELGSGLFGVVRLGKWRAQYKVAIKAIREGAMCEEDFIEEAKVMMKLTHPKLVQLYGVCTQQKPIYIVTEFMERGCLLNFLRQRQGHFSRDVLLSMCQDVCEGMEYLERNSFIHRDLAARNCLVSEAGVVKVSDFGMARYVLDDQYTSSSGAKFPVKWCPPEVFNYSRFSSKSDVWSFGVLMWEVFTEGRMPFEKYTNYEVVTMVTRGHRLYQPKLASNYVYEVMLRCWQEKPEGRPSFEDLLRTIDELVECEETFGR

[12] = molecular target: STK38L (human) (UniProt Q9Y2H1)
[13] = molecular target: DYRK2 (human) (UniProt Q92630)
[14] = molecular target: MET (human) (UniProt P08581)
[15] = molecular target: IRAK1 (human) (UniProt P51617)
[16] = molecular target: BMX (human) (UniProt P51813)
[17] = molecular target: NUAK1 (human) (UniProt O60285)
[18] = molecular target: SGK1 (human) (UniProt O00141)
[19] = molecular target: IKBKE (human) (UniProt Q14164)
[20] = molecular target: FGFR1 (human) (UniProt P11362)
[21] = molecular target: CDC42BPA (human) (UniProt Q5VT25)
[22] = molecular target: PRKCQ (human) (UniProt Q04759)
[23] = molecular target: PRKCH (human) (UniProt P24723)
[24] = molecular target: EPHB4 (human) (UniProt P54760)
[25] = molecular target: HIPK4 (human) (UniProt Q8NE63)
[26] = molecular target: PDGFRB (human) (UniProt P09619)
[27] = molecular target: CLK3 (human) (UniProt P49761)
[28] = molecular target: DDR1 (human) (UniProt Q08345)
[29] = molecular target: PAK1 (human) (UniProt Q13153)
[30] = molecular target: SLK (human) (UniProt Q9H2G2)
[31] = molecular target: MAPK7 (human) (UniProt Q13164)
[32] = molecular target: FRK (human) (UniProt P42685)
[33] = molecular target: ALK EML4 (human) (UniProt Q9HC35+Q9UM73)
Sequence of ALK EML4 (human) (Q9HC35 whole entry, looked up): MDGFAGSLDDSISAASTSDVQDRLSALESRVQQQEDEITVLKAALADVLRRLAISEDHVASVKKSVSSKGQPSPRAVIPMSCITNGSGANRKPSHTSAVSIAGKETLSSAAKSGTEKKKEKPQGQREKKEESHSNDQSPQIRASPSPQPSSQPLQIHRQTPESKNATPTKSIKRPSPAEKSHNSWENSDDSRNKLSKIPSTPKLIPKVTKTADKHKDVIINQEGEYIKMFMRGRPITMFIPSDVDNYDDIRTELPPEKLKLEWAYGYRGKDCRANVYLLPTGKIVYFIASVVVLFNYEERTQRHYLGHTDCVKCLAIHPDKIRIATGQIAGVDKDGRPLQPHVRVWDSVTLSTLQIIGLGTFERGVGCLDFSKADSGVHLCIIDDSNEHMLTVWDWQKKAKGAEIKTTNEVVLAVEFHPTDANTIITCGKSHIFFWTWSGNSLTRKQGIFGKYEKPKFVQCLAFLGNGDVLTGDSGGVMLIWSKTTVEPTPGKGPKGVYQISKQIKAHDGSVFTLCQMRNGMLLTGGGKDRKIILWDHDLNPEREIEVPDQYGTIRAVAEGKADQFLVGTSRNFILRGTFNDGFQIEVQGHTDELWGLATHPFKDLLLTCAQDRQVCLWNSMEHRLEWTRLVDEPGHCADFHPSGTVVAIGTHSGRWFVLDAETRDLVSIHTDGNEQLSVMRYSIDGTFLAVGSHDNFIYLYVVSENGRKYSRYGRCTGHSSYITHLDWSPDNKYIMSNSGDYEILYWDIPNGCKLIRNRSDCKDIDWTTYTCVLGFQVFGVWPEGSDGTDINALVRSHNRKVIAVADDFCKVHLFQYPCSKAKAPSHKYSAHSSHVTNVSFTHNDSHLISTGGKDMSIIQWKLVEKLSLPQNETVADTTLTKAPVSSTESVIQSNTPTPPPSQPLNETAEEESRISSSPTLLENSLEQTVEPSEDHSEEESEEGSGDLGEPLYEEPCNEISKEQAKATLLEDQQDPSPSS
Sequence of ALK EML4 (human) (Q9UM73 whole entry, looked up): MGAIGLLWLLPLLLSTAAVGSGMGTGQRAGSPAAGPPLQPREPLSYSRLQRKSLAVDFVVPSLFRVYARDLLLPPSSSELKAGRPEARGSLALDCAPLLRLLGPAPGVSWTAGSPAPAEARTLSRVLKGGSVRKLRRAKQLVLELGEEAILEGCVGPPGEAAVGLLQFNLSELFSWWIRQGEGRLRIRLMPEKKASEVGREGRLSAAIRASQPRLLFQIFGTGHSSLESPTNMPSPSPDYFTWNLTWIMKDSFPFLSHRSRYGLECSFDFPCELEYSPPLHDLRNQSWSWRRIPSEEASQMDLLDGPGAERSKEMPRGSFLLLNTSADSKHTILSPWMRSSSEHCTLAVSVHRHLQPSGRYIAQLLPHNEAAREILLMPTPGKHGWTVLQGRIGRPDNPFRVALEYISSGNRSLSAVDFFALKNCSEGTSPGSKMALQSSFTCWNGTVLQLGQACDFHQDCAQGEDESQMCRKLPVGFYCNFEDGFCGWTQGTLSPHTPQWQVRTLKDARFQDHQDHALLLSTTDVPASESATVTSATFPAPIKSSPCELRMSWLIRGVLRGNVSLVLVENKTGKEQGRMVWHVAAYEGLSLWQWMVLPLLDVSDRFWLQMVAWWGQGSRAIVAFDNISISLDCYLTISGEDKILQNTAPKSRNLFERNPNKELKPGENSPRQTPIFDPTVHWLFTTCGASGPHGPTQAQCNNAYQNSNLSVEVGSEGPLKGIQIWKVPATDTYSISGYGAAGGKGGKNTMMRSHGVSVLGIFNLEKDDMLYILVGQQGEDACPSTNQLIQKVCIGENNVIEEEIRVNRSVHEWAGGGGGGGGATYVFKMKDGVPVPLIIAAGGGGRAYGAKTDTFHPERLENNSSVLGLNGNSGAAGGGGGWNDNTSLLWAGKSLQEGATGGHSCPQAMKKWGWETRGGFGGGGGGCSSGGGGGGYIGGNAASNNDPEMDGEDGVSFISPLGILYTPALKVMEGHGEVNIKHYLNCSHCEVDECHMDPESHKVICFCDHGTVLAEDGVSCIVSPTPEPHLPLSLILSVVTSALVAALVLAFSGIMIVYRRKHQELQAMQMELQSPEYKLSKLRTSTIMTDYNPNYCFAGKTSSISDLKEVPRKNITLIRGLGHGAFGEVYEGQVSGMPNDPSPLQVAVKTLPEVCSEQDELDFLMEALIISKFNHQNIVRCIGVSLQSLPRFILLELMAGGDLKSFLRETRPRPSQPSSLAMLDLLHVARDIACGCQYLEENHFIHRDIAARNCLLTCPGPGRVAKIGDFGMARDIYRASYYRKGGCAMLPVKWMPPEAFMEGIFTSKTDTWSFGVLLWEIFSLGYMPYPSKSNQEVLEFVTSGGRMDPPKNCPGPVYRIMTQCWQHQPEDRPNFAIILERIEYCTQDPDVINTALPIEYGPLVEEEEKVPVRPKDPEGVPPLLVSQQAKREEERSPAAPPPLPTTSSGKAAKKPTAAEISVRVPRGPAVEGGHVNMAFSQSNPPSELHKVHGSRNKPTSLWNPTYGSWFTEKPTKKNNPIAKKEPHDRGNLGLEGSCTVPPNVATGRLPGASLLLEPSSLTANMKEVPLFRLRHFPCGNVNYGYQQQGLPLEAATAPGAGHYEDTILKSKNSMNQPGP

[34] = molecular target: PRKAA2 (human) (UniProt P54646)

Sequence of DCLK2 (human) (Q8N568 whole entry, looked up): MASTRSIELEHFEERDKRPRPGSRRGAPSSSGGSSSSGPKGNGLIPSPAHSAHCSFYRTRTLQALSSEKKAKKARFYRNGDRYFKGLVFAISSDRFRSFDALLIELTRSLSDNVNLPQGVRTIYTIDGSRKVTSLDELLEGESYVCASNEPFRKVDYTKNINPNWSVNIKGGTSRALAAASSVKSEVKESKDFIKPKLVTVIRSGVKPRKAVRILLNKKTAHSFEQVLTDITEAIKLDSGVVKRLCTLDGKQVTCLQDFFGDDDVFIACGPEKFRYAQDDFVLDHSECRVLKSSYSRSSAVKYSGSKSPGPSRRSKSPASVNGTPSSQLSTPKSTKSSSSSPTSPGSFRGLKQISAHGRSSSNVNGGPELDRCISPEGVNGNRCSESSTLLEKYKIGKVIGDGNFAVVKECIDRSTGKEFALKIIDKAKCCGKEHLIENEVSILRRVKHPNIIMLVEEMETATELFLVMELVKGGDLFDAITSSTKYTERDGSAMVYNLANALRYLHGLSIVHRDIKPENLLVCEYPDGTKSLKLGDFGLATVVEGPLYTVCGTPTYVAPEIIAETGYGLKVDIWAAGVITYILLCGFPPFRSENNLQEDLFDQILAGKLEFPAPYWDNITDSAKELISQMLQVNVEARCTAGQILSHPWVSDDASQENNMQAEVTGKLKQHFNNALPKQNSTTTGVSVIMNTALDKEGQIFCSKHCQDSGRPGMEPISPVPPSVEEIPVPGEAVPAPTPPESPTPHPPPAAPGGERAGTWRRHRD

inhibition ([1]; compound 0.02 µM): 6.9% | inhibition ([1]; compound 0.2 µM): 7.8% | inhibition ([2]; compound 0.02 µM): -6.3% | inhibition ([2]; compound 0.2 µM): 0.5% | inhibition ([3]; compound 0.02 µM): -1.4% | inhibition ([3]; compound 0.2 µM): -6.5% | inhibition ([4]; compound 0.02 µM): -7.2% | inhibition ([4]; compound 0.2 µM): -7.9% | inhibition ([5]; compound 0.02 µM): -1.8% | inhibition ([5]; compound 0.2 µM): -0.5% | inhibition ([6]; compound 0.02 µM): 6.3% | inhibition ([6]; compound 0.2 µM): 5.3% | inhibition ([7]; compound 0.02 µM): 1.4% | inhibition ([7]; compound 0.2 µM): -1.5% | inhibition ([8]; compound 0.02 µM): -0.8% | inhibition ([8]; compound 0.2 µM): -3.1% | inhibition ([9]; compound 0.02 µM): 73.8% | inhibition ([9]; compound 0.2 µM): 97% | inhibition ([10]; compound 0.02 µM): -0.9% | inhibition ([10]; compound 0.2 µM): 7.6% | inhibition ([11]; compound 0.02 µM): 4.5% | inhibition ([11]; compound 0.2 µM): 5.3% | inhibition ([12]; compound 0.02 µM): 8.9% | inhibition ([12]; compound 0.2 µM): -0.2% | inhibition ([13]; compound 0.02 µM): 13.4% | inhibition ([13]; compound 0.2 µM): -5.6% | inhibition ([14]; compound 0.02 µM): 1% | inhibition ([14]; compound 0.2 µM): 6% | inhibition ([15]; compound 0.02 µM): -19.1% | inhibition ([15]; compound 0.2 µM): -7.5% | inhibition ([16]; compound 0.02 µM): 8.4% | inhibition ([16]; compound 0.2 µM): 7.1% | inhibition ([17]; compound 0.02 µM): 8.9% | inhibition ([17]; compound 0.2 µM): -13.6% | inhibition ([18]; compound 0.02 µM): 5.2% | inhibition ([18]; compound 0.2 µM): 0.4% | inhibition ([19]; compound 0.02 µM): -6.2% | inhibition ([19]; compound 0.2 µM): -5.1% | inhibition ([20]; compound 0.02 µM): 52.9% | inhibition ([20]; compound 0.2 µM): 91.2% | inhibition ([21]; compound 0.02 µM): 3.4% | inhibition ([21]; compound 0.2 µM): 14.9% | inhibition ([22]; compound 0.02 µM): 8.9% | inhibition ([22]; compound 0.2 µM): 3.7% | inhibition ([23]; compound 0.02 µM): 6% | inhibition ([23]; compound 0.2 µM): 4.7% | inhibition ([24]; compound 0.02 µM): -0.5% | inhibition ([24]; compound 0.2 µM): 23.3% | inhibition ([25]; compound 0.02 µM): -0.9% | inhibition ([25]; compound 0.2 µM): -6.5% | inhibition ([26]; compound 0.02 µM): 17.9% | inhibition ([26]; compound 0.2 µM): 61.8% | inhibition ([27]; compound 0.02 µM): 11.9% | inhibition ([27]; compound 0.2 µM): -4.2% | inhibition ([28]; compound 0.02 µM): 25.7% | inhibition ([28]; compound 0.2 µM): 95.3% | inhibition ([29]; compound 0.02 µM): -2.7% | inhibition ([29]; compound 0.2 µM): -3% | inhibition ([30]; compound 0.02 µM): 37.5% | inhibition ([30]; compound 0.2 µM): 85% | inhibition ([31]; compound 0.02 µM): -8.6% | inhibition ([31]; compound 0.2 µM): -6.2% | inhibition ([32]; compound 0.02 µM): 12% | inhibition ([32]; compound 0.2 µM): 27.4% | inhibition ([33]; compound 0.02 µM): -1.4% | inhibition ([33]; compound 0.2 µM): 0.1% | inhibition ([34]; compound 0.02 µM): 5.1% | inhibition ([34]; compound 0.2 µM): 6%
SMILES: COc1cc2c(Oc3ccc4[nH]c(C)cc4c3F)ncnc2cc1OCCCN1CCCC1
